What was measured:
[1] = tested on: FVII (Factor VII), mF7-III target gene; experiment: RNA interference against FVII by 3′-capped siRNAs (FIG. 2); set-up: species or system mouse; details: 19-mer blunt-ended mF7-III siRNA, A12S17
[2] = tested on: human HAMP (Hepcidin) gene; experiment: Hepcidin mRNA down regulation by HAMP siRNA-PAZ ligand conjugates in HuH-7 cells; type: cell-based; details: Hepcidin RNAi agent, format S402+ribitol+MOE clamp
[3] = Serum stability of siRNAs with 3′ end caps in mouse serum; details: 100% mouse serum, 37° C., up to 24 h; compared to luciferase and dTsdT controls
[4] = Serum stability of siRNAs with 3′ end caps in human serum; details: 100% human serum, 37° C., up to 24 h; gel with SYBR gold
human SSB = experiment: Human SSB RNAi agent, RNA interference in vitro; type: cell-based

With `C1C2CC3CC1CC(C2)C3` [Adamantane] the “ability of the RNAi agent to perform RNA interference (FIG. 2)” value (“ability of the RNAi agent” for short) [1] was “allow the RNAi agent to perform RNA interference”.

For `c1ccc(-c2ccccc2)cc1` [BP (biphenyl), biphenyl], the “Hepcidin KD at 5 nM in vitro (%)” value [2] was 68%.

With `c1ccc(-c2ccccc2)cc1` [Biphenyl] the “ability of the RNAi agent” value [1] was “allow the RNAi agent to perform RNA interference”, the “stability in mouse serum” value [3] was “increased stability” and the “stability in human serum” value [4] was “increased stability”.

In the case of `OCCOCCOCCO` [Triethylene glycol], the “ability of the RNAi agent” value [1] is reported as “allow the RNAi agent to perform RNA interference”.

For “hs_SSB_309_AS_18mer-C3-C6: "human SSB RNAi agent"; "AS: UuAcAUuAAAGUCUGU87-C3pC6", "S: cAAcAGAcuuuAAuGu55-C3pC6" (SEQ ID NO: 90, 91) (chain 1 UUACAUUAAAGUCUGUTG; chain 2 CAACAGACUUUAAUGUAA; C3pC6 3' end caps on both strands, further chemistry not given here)”, the “RNA interference in vitro” value (human SSB) was “effective at mediating RNA interference in vitro”.

— patent US11008570B2, “3′ end caps for RNAi agents for use in RNA interference” (Novartis AG, priority 2013, dated 2021)
